Measurements: publication PMC8213385, “Development of a Fluorescent Assay to Search New Drugs Using Stable tdTomato-Leishmania, and the Selection of Galangin as a Candidate With Anti-Leishmanial Activity” (Frontiers in Cellular and Infection Microbiology, 2021)

What was measured:
[1] = system: intracellular amastigotes of L. (L.) amazonensis; test: Microscopic assay, counting intracellular amastigotes in Raw 264.7 macrophages at the optic microscope; format: cell-based, Leishmania (Leishmania) amazonensis
Experimental: Furthermore, the efficacy of MI was also determined against intracellular amastigotes of L. amaz/tc3 and L. amaz/wt. Raw 264.7 macrophages were plated in 96-well black plate (5 x 10^4 cells/well) and in eight well Lab-Tek tissue culture slides (6.6 x 10^4 cells/ml) (Nunc, USA). The cells were infected with promastigotes in stationary phase of L. amaz/tc3 and L. amaz/wt (1:20 ratio) at 33°C, 5% CO2. After incubation, the infected macrophages were washed to remove non-internalized parasites with PBS plus P-S. New RPMI-1640 medium with different concentrations of MI (20 to 0.62 µg/ml) was added to each well and incubated at 33°C, 5% CO2 during 48 h. The anti-leishmanial activity of MI was determined by measuring the fluorescence of intracellular amastigotes of L. amaz/tc3 in a plate reader (Tecan, Männedorf, Switzerland). The viability was calculated as mentioned above, and the IC50 was also estimated. Simultaneously, the leishmanicidal activity of MI against L. amaz/wt was determined by the microscopy test. In this case, the infected macrophages were stained with Diff Quik (Biopur S.R.L., Rosario, Argentina) and the number of intracellular amastigotes was determined in 200-500 macrophages in treated and control cultures per slide under the immersion lens microscope (100x) (Leitz Wetzlar, Germany). The infection index (II) and the % infectivity (I) were calculated by the following formulas: II = IM × A, where IM= infected macrophages (%), A= number of amastigotes per infected macrophages; and I(%)=IIT/IIc×100, where IIT= infection index in treated cultures, IIC= infection index in control cultures ([Ayres et al., 2008]). The IC50 of MI was calculated.
Then, to estimate the IC50 values of GAL, FI and MO; and to confirm the IC50 of RU, the activity was evaluated quantifying the intracellular amastigotes at the optic microscope. We followed the same methodology described for MI (microscopic assay) in “In Vitro, Fluorescent Assay Validation” section and the range of concentrations were for GAL (30 to 7.5 µM), FI (60 to 15 µM), RU and MO (200 to 50 µM), EGCG (142 a 17.7 µM).

[2] = system: promastigotes of L. amaz/tc3; test: Transmission electron microscopy of treated promastigotes; format: cell-based, Leishmania (Leishmania) amazonensis; settings: exposed to the IC50, 48 h
Experimental: Ultrastructural alterations in Leishmania induced by flavonoids with anti-leishmanial activity were analyzed by transmission electron microscopy (TEM). […] The control was a culture of L. amaz/tc3 incubated in complete RPMI-1640 medium. After 48 h of incubation, samples of L. amaz/tc3 promastigotes from each culture were fixed in modified Karnovsky’s solution (formaldehyde [2.66%], glutaraldehyde [1.66%]) and PBS 0.1M (pH 7,4), and incubated overnight at 4°C. The fixed samples were post-fixed with a 1/1 solution of PBS/2% osmium tetroxide (OsO4), overnight. Then the material was dehydrated and included in Spurr (Pelco, USA). Ultrathin sections were cut with an ultramicrotome (MT1, Sorvall, USA), mounted on copper grids, and contrasted with uranyl acetate (PELCO, USA) and lead citrate.

SMILES: O=c1c(O)c(-c2ccccc2)oc2cc(O)cc(O)c12 [GAL, Galangin]
- SI (Selectivity index) ([1]; CC50 for macrophages/IC50 for Leishmania (intracellular amastigotes; Ma from fluorescence IC50)): 1.1
- IC50 ([1]; Leishmania amazonensis, RAW264.7, Raw 264.7 macrophages, 48 h, optic microscope, read-out: Microscopic IC50 μM (SE), intracellular amastigotes): 20.6 µM
- Ultrastructural alterations in promastigotes (TEM) [2]: dramatic changes in the mitochondrial structure
